Test results reported in patent US6225332A, “Compositions containing histamine H2 agonists and methods of use in treating allergy and inflammation” (priority 1998, dated 2001).

How the values were obtained:
rodent mast cell = settings: cited from earlier work
[1] = system: mast cells obtained from bronchoalveolar lavage fluid; settings: 100 μM; human trials; cited from earlier work
human skin mast cells = settings: cited from earlier work
[2] = human, in vivo; cited from earlier work
[3] = system: human conjunctival mast cells; assay: Miller Test: inhibition of anti-IgE-induced histamine release (mast cell stabilization assay); format: cell-based; settings: for inhibition at 10 µM / inhibition at 100 µM: * p < 0.05, Dunnett's t-test (dimaprit only); for inhibition at 1000 µM: * p < 0.05, Dunnett's t-test (both compounds)
Description: While mast cells exist in various tissues and species, there is considerable mast cell heterogeneity within these different sources. Therefore, in order to provide compounds of the present invention which are specific for human conjunctival mast cells, drug compounds need to be tested for inhibition of human conjunctival mast cell degranulation using human conjunctival mast cells. Such efficacy can be determined by using the method described in U.S. Pat. No. 5,360,720 (Miller et al.) and in Miller, et al., "Human conjunctival mast cell responses in vitro to various secretagogues," Ocular Immunology and Inflammation, volume 4, issue 1, pages 39-49 (1996) (the "Miller Test"), the entire contents of the forgoing patent and article are incorporated herein by reference.
The Miller Test is generally performed by the following protocol:
Human conjunctival tissue mast cells are isolated from post-mortem tissue donors obtained within 8 hours of death by various eye banks and transported in Dexsole corneal preservation medium. Tissues are then enzymatically digested by repeated exposure (30 minutes at 37° C.) to collagenase (Type IV) and hyaluronidase (Type I-S) (2 times with 200 U […] each/gram tissue, then 2-4 times with 2000 U each/gram tissue) in Tyrode's buffer containing 0.1% gelatin. Each digestion mixture is filtered over Nitex® cloth (100 µm mesh) and washed with an equal volume of buffer. Filtrates are centrifuged at 825×g (7 mininutes). Pellets are resuspended in buffer then combined for enrichment over a […] Percoll® cushion. The enriched pellet is then washed and resuspended in supplemented RPMI 1640 medium for equilibration at 37° C.
The preparations containing the mast cells are then placed in a culture medium, preferably supplemented RPMI 1640, and allowed to equilibrate at about 30°-37° C. for a minimum of about 40 hours.
After equilibrating for a minimum of about 40 hours, the cells may be harvested from the culture (for example, by gentle flushing utilizing pasteur pipettes), pooled and centrifuged.
Cell pellets may then be resuspended in buffer and viability and mast cell number determined by well known methods. The conjunctival mast cells are now prepared for use in mast cell stabilization assays.
All test drugs are placed into solution immediately prior to use. Generally, each compound is dissolved in Tyrode's buffer containing 0.1% gelatin and diluted to an appropriate concentration.
Cells are harvested from the culture plate and counted for viability (trypan blue exclusion) and mast cell number (toluidine blue O). Mast cells (5000/tube; 1 milliliter ("mL," final volume) are then challenged (37° C.) for 15 minutes with goat-anti-human IgE (10 μg/mL) following treatment (1 or 15 minutes; 37° C.) with test drug or Tyrode's buffer. Total and non-specific release controls are exposed to 0.1% Triton X-100 and goat IgG (10 μg/mL), respectively. The reaction was terminated by centrifugation (500×g, 4° C., 10 minutes). Supernatants are stored at -20° C. until analyzed for histamine content by radioimmunoassay ("RIA").
The IC50 of each compound (concentration at which 50% of the histamine release was inhibited, as compared to control) was then calculated.
The H2 agonists, dimaprit and amthamine, were tested in the Miller Test, as described in Example 1, above. Table I and FIG. 1 illustrate the efficacy of dimaprit and amthamine on the inhibition of histamine release from human conjunctival mast cells.

**Q.** For `O=C(O)c1cc(=O)c2c(OCC(O)COc3cccc4oc(C(=O)O)cc(=O)c34)cccc2o1` [Disodium cromoglycate], which “inhibition of rodent mast cell degranulation” value (rodent mast cell) is on record?
**A.** shown to inhibit rodent mast cell degranulation

**Q.** What about the “inhibition of mast cells obtained from bronchoalveolar lavage fluid” value [1] of the same compound?
**A.** inhibited mast cells obtained from bronchoalveolar lavage fluid

**Q.** And the “inhibition of histamine release from human skin mast cells” value (human skin mast cells)?
**A.** not inhibited at all

**Q.** What about the “irritation / side effects” value [2] of the same compound?
**A.** irritating to some patients

**Q.** With `Cc1nc(N)sc1CCN` [amthamine] as the compound, how does the inhibition at 0.1 µM ([3]; 0.1 μM) read?
**A.** 11%

**Q.** And the inhibition at 1 µM [3]?
**A.** 3.6 ± 3.9%

**Q.** And the inhibition at 10 µM [3]?
**A.** 7.3 ± 6.5%

**Q.** And the inhibition at 100 µM [3]?
**A.** 9.9 ± 8.6%

**Q.** What about the inhibition at 1000 µM [3] of the same compound?
**A.** 60.5 ± 6.2%

**Q.** With `CN(C)CCCSC(=N)N` [dimaprit] as the compound, how does the inhibition at 1 µM [3] read?
**A.** 10.1 ± 4.2%

**Q.** What about the inhibition at 10 µM [3] of the same compound?
**A.** 14.4 ± 9.3%

**Q.** And the inhibition at 100 µM [3]?
**A.** 35 ± 3.5%

**Q.** And the inhibition at 1000 µM [3]?
**A.** 75.9 ± 3.5%

**Q.** And the inhibition at 10000 µM ([3]; 10,000 μM, * p < 0.05, Dunnett's t-test)?
**A.** 83.6 ± 0.9%
